Source: patent publication US6475536B2, “Pharmaceutical and cosmetic formulations with antimicrobial activity” (Indena S.p.A., priority 1996, dated 2002)
In brackets after ≈: the same amount, converted by molar mass.

Assays:
Test in all cases: In vitro antimicrobial activity (M.I.C.)
Format in all cases: cell-based
[1] = tested on: Propionibacterium acnes; conditions: Cutibacterium acnes, average values
Protocol: (§1) The first is prepared from Krameria triandra and from Mesua ferrea. The activity, expressed in M.I.C. (minimum inhibitory concentration), was evaluated by normal terms within the art. Moreover, one of ordinary skill in the art with little or no experimentation can optimize the results for a particular antimicrobial compound or mixtures of compounds.

[2] = tested on: Staphilococcus aureus MPR5; conditions: average values
Protocol: as §1

[3] = tested on: Pseudomonas aeruginosa CNUR 4; conditions: CNUR4, average values
Protocol: as §1

[4] = tested on: Streptococcus feaecalis LEP Br; conditions: average values
Protocol: as §1

[5] = tested on: Bacteroides fragilis; conditions: average values
Protocol: as §1

[6] = tested on: Staphilococcus epidermis CPHL; conditions: average values
Protocol: as §1

[7] = tested on: Acinetobacter cal. OSMPV; conditions: average values
Protocol: as §1

[8] = tested on: Staphilococcus aureus ATCC6538; conditions: average values
Protocol: as §1

[9] = tested on: Escherichia coli CNUR 1; conditions: CNUR1, average values
Protocol: as §1

[10] = tested on: Candida albicans ATCC 10231; conditions: ATCC10231, average values
Protocol: as §1

[11] = tested on: Trichophyton mentagrophytes 193; conditions: average values
Protocol: as §1

MIC [1] [µg/mL] | MIC [2] [µg/mL] | MIC [3] [µg/mL] | MIC [4] [µg/mL] | MIC [5] [µg/mL] | MIC [6] [µg/mL] | MIC [7] [µg/mL] | MIC [8] [µg/mL] | MIC [9] [µg/mL] | MIC [10] [µg/mL] | MIC [11] [µg/mL] | Compound
32 (≈ 88.1 µM) | 1 (≈ 2.75 µM) | 32 (≈ 88.1 µM) | 16 (≈ 44 µM) | 32 (≈ 88.1 µM) | 1 (≈ 2.75 µM) | 2 (≈ 5.5 µM) | 0.5 (≈ 1.38 µM) | 0.51 (≈ 1.4 µM) |  |  | CN1CCN(c2c(F)cc3c(=O)c(C(=O)O)cn4c3c2SCC4)CC1 [rufloxacin]
 |  |  |  |  |  |  |  |  | 2 (≈ 4.81 µM) | 2 (≈ 4.81 µM) | Clc1ccc(COC(Cn2ccnc2)c2ccc(Cl)cc2Cl)c(Cl)c1 (centres unmarked) [miconazole]
